Strand notation (5' to 3'): a small letter for the sugar, then the base; units joined by * are phosphorothioate-linked, units joined directly phosphodiester-linked; [ ] holds rarer units or linkages, { } end groups; capitals alone tell only the bases. k = constrained ethyl (cEt); [5mC] = 5-methylcytosine; d = 2'-deoxy (DNA)
System: Yap1 mRNA
Assay: Antisense inhibition of human Yap1 in A-431 cells by cEt gapmers, single dose (Example 2, RTS4814)
Assay type: cell-based
Method: Modified oligonucleotides were designed to target a Yap1 nucleic acid and were tested for their effect on Yap1 mRNA level in vitro. The modified oligonucleotides were tested in a series of experiments that had similar culture conditions. Cultured A-431 cells at a density of 5,000 cells per well were treated using free uptake with 2,000 nM of modified oligonucleotide. After a treatment period of approximately 48 hours, RNA was isolated from the cells and Yap1 mRNA levels were measured by quantitative real-time RTPCR. Human primer probe set RTS4814 was used to measure mRNA levels. Yap1 mRNA levels were normalized to total RNA content, as measured by RIBOGREEN®. Results are presented in the tables below as percent control of the amount of Yap1 mRNA relative to untreated control cells (% UTC). The modified oligonucleotides with percent control values marked with an asterisk (*) target the amplicon region of the primer probe set. Additional assays may be used to measure the potency and efficacy of the modified oligonucleotides targeting the amplicon region.
The newly designed modified oligonucleotides in the Tables below were designed as 3-10-3 cEt gapmers. The gapmers are 16 nucleosides in length, wherein the central gap segment comprises of ten 2′-deoxynucleosides and is flanked by wing segments on the 5′ direction and the 3′ direction comprising three nucleosides each. Each nucleoside in the 5′ wing segment and each nucleoside in the 3′ wing segment has a cEt sugar modification. The internucleoside linkages throughout each gapmer are phosphorothioate (P═S) linkages. All cytosine residues throughout each gapmer are 5-methylcytosines.
“Start site” indicates the 5′-most nucleoside to which the gapmer is targeted in the human gene sequence. “Stop site” indicates the 3′-most nucleoside to which the gapmer is targeted human gene sequence. […] Activity ofthe modified oligonucleotide may be defined in a different experiment.

[1] = Table 6, A-431 cells, 5,000 cells per well, free uptake, 2,000 nM modified oligonucleotide, approx. 48 hours, RTS4814, normalized to RIBOGREEN, Yap1 mRNA relative to untreated control cells
[2] = Table 22, Yap1 mRNA as percent of untreated control, 3-10-3 cEt gapmers, single dose
[3] = Table 32, Yap1 mRNA, percent of untreated control, 3-10-3 cEt gapmers targeting SEQ ID NO.: 1, and 2
[4] = Table 5, A-431 cells, 5,000 cells per well, free uptake, 2,000 nM modified oligonucleotide, approx. 48 hours, RTS4814, normalized to RIBOGREEN, Yap1 mRNA relative to untreated control cells
[5] = Table 19, A-431 cells, 5,000 cells per well, free uptake, 2,000 nM modified oligonucleotide, approx. 48 hours, RTS4814, normalized to RIBOGREEN, Yap1 mRNA as percent of untreated control
[6] = Table 20, Yap1 mRNA, percent of untreated control, 3-10-3 cEt gapmers targeting SEQ ID NO.: 1 and 2
[7] = Table 33, Yap1 mRNA, percent of untreated control, 3-10-3 cEt gapmers targeting SEQ ID NO.: 1, and 2
[8] = Table 23, Yap1 mRNA as percent of untreated control, 3-10-3 cEt gapmers, single dose
[9] = Table 24, Yap1 mRNA as percent of untreated control, 3-10-3 cEt gapmers targeting SEQ ID NO.: 1, and 2
[10] = Table 21, Yap1 mRNA, percent of untreated control, 3-10-3 cEt gapmers targeting SEQ ID NO.: 1 and 2
[11] = Yap1 mRNA as percent of untreated control, A-431 cells, 3-10-3 cEt gapmers targeting SEQ ID NO.: 1, and 2, Table 30
[12] = Yap1 mRNA as percent of untreated control, A-431 cells, 3-10-3 cEt gapmers targeting SEQ ID NO.: 1, and 2, Table 31

## 716562 (kG*k[5mC]*k[5mC]*dT*dG*d[5mC]*d[5mC]*dG*dA*dA*dG*d[5mC]*dA*kG*kT*kT) [Compound 716562]
Table 7 (gapmers targeting SEQ ID NO: 3 and 4), A-431 cells, free uptake, 2,000 nM, approximately 48 hours, RTS4814
  YAP1 (% UTC): 103 % UTC

## 716489 (kA*kG*kT*dT*dA*dA*dT*dT*d[5mC]*dA*dT*dG*d[5mC]*kT*k[5mC]*kG; antisense) [Compound 716489]
[1]
  YAP1 (% UTC): 23 % UTC

## 1074792 (kA*kT*k[5mC]*dA*dA*dT*dG*dT*dG*d[5mC]*dT*d[5mC]*d[5mC]*kA*kT*k[5mC]; antisense) [Compound 1074792]
[2]
  YAP1 (% UTC): 4 % UTC

## 1076104 (kA*k[5mC]*kG*dA*dA*dA*dT*dA*dG*dT*dA*dA*d[5mC]*kT*kG*kT; antisense) [Compound 1076104]
[2]
  YAP1 (% UTC): 24 % UTC

## 1075378 (antisense kA*kA*kA*dA*d[5mC]*dT*dA*dA*dT*d[5mC]*dA*dT*d[5mC]*kG*kA*kT) [compound 1075378]
[3]
  YAP1 (% UTC): 83 % UTC

## 716539 (antisense kA*kA*kT*dA*dG*dT*dG*d[5mC]*dT*dT*dT*dG*dG*kA*kA*kG) [Compound 716539]
[4]
  YAP1 (% UTC): 59 % UTC

## 1074309 (antisense k[5mC]*k[5mC]*kG*d[5mC]*dA*dT*dT*dG*d[5mC]*d[5mC]*dT*dG*dT*kG*kG*k[5mC]) [Compound 1074309]
[5]
  YAP1 (% UTC): 80 % UTC

## 1074706 (antisense kT*kT*kA*dA*dT*dG*dG*d[5mC]*dA*dG*d[5mC]*dA*d[5mC]*kG*kG*kT) [compound 1074706]
[3]
  YAP1 (% UTC): 48 % UTC

## 1075814 (kT*kA*kT*dA*dA*dA*dG*d[5mC]*dA*dG*dG*dG*d[5mC]*kA*kT*kT; antisense) [Compound 1075814]
[6]
  YAP1 (% UTC): 47 % UTC

## 1075878 (kG*kA*kT*dT*dA*dT*d[5mC]*dA*dA*dG*dT*dA*dG*kT*kT*kT; antisense) [Compound 1075878]
[6]
  YAP1 (% UTC): 35 % UTC

## 1074515 (kT*kA*kA*d[5mC]*dT*dG*dG*dA*dA*dA*dG*d[5mC]*dA*kG*kG*kG; antisense) [compound 1074515]
[7]
  YAP1 (% UTC): 9 % UTC

## 1074181 (antisense k[5mC]*k[5mC]*k[5mC]*dG*dG*dG*dA*dT*d[5mC]*d[5mC]*dA*dT*dG*kG*k[5mC]*kT) [Compound 1074181]
[5]
  YAP1 (% UTC): 107 % UTC

## 1075785 (k[5mC]*kA*kT*dT*dT*dT*dA*dT*dA*dG*dG*dG*d[5mC]*k[5mC]*kA*kT; antisense) [Compound 1075785]
[8]
  YAP1 (% UTC): 2 % UTC

## 1076101 (kA*kA*kA*dT*dA*dA*dG*dG*dG*dA*d[5mC]*dT*dA*k[5mC]*kT*kT; antisense) [Compound 1076101]
[5]
  YAP1 (% UTC): 71 % UTC

## 716464 (kT*kA*k[5mC]*dT*dT*d[5mC]*dA*dA*dA*d[5mC]*dA*dT*d[5mC]*kT*kG*k[5mC]; antisense) [Compound 716464]
[4]
  YAP1 (% UTC): 62 % UTC

## 1075314 (antisense kA*kA*kT*dA*dA*dA*dG*dT*d[5mC]*dT*dA*dA*dT*k[5mC]*k[5mC]*kA) [compound 1075314]
[3]
  YAP1 (% UTC): 54 % UTC

## 716552 (kT*kT*kT*d[5mC]*dT*d[5mC]*dA*dG*dA*dT*dG*dT*dA*k[5mC]*k[5mC]*kA; antisense) [Compound 716552]
[1]
  YAP1 (% UTC): 53 % UTC

## 1074277 (antisense kG*kT*k[5mC]*dT*dA*dG*d[5mC]*d[5mC]*dA*dA*dG*dA*dG*kG*kT*kG) [Compound 1074277]
[5]
  YAP1 (% UTC): 18 % UTC

## 1076147 (kA*kT*kT*dA*dA*d[5mC]*dT*d[5mC]*dA*d[5mC]*dG*dA*dA*kG*kA*k[5mC]; antisense) [compound 1076147]
[7]
  YAP1 (% UTC): 25 % UTC

## 716354 (kT*k[5mC]*kG*d[5mC]*dT*d[5mC]*dT*d[5mC]*dA*dG*dG*dG*d[5mC]*k[5mC]*kG*kG; antisense) [Compound 716354]
[1]
  YAP1 (% UTC): 114 % UTC

## 1074889 (antisense kA*kG*kT*dT*dT*dA*dG*d[5mC]*d[5mC]*dT*dG*dA*dA*kG*k[5mC]*kA) [Compound 1074889]
[8]
  YAP1 (% UTC): 42 % UTC

## 1076042 (k[5mC]*kT*kT*dA*dA*dG*d[5mC]*dA*dA*dG*dA*dG*dT*k[5mC]*k[5mC]*kA; antisense) [Compound 1076042]
[9]
  YAP1 (% UTC): 35 % UTC

## 1074387 (k[5mC]*k[5mC]*kA*dG*dG*dA*dA*dT*dG*dG*d[5mC]*dT*dT*k[5mC]*kA*kA; antisense) [compound 1074387]
[7]
  YAP1 (% UTC): 32 % UTC

## 1075141 (antisense kT*kA*kT*dA*d[5mC]*dG*dA*dG*dA*dA*dG*dT*dT*kG*kA*kA) [Compound 1075141]
[5]
  YAP1 (% UTC): 54 % UTC

## 1075943 (kG*kT*kA*dT*dA*dT*d[5mC]*dA*dA*dA*d[5mC]*d[5mC]*dT*kT*kT*kT; antisense) [Compound 1075943]
[10]
  YAP1 (% UTC): 15 % UTC

## 1076325 (k[5mC]*kT*kA*dA*dT*dA*dA*dT*dG*dG*dA*dA*dG*kA*kG*kT; antisense) [Compound 1076325]
[5]
  YAP1 (% UTC): 16 % UTC

## 1074407 (antisense kT*kA*kA*dA*dG*dT*dA*dT*d[5mC]*dT*dT*dG*d[5mC]*kT*kG*kG) [Compound 1074407]
[10]
  YAP1 (% UTC): 6 % UTC

## 1075402 (antisense kG*kA*kG*d[5mC]*dA*dA*d[5mC]*dA*d[5mC]*dA*dA*dG*d[5mC]*kA*kT*kA) [Compound 1075402]
[9]
  YAP1 (% UTC): 45 % UTC

## 1074896 (antisense kG*k[5mC]*kA*dA*dA*dG*dT*dT*d[5mC]*d[5mC]*dT*dA*dT*kG*k[5mC]*kT) [compound 1074896]
[11]
  YAP1 (% UTC): 99 % UTC

## 1075603 (antisense kT*kA*kT*dG*dA*dA*d[5mC]*dA*dA*dG*dT*dA*dT*kG*kA*kG) [compound 1075603]
[7]
  YAP1 (% UTC): 35 % UTC

## 1075750 (k[5mC]*kA*kA*dT*dT*dA*dT*dG*dA*dA*dT*dG*dA*kT*kG*kG; antisense) [Compound 1075750]
[6]
  YAP1 (% UTC): 10 % UTC

## 1074118 (antisense k[5mC]*kA*k[5mC]*dT*d[5mC]*dG*dG*dA*d[5mC]*d[5mC]*dT*dG*d[5mC]*kG*kG*k[5mC]) [Compound 1074118]
[6]
  YAP1 (% UTC): 66 % UTC

## 716508 (antisense k[5mC]*kT*kA*dG*dG*dT*dA*dG*dA*dA*dT*dT*dT*k[5mC]*kA*kT) [Compound 716508]
A-431 cells, 5,000 cells per well, free uptake, 2,000 nM modified oligonucleotide, approx. 48 hours, RTS4814, normalized to RIBOGREEN, Table 4, asterisk (*) = targets amplicon region of primer probe set
  YAP1 (% UTC): 67 % UTC

## 716471 (k[5mC]*k[5mC]*kT*dA*d[5mC]*dT*d[5mC]*dA*d[5mC]*dT*dG*dA*dA*kT*kT*k[5mC]; antisense) [Compound 716471]
[1]
  YAP1 (% UTC): 48 % UTC

## 1076048 (kG*kA*kT*dT*dA*dA*dA*dG*dG*d[5mC]*dT*dG*dG*kA*kA*kG; antisense) [compound 1076048]
[11]
  YAP1 (% UTC): 32 % UTC

## 1075217 (kT*kT*kA*dT*dT*dT*dT*dA*d[5mC]*dA*d[5mC]*dG*dA*kA*k[5mC]*kT; antisense) [compound 1075217]
[12]
  YAP1 (% UTC): 71 % UTC

## 716395 (kG*k[5mC]*k[5mC]*dG*d[5mC]*dA*dG*d[5mC]*d[5mC]*dT*d[5mC]*dT*d[5mC]*k[5mC]*kT*kT; antisense) [Compound 716395]
[4]
  YAP1 (% UTC): 92 % UTC

## 716420 (k[5mC]*kA*kA*d[5mC]*dT*dG*dG*d[5mC]*dT*dT*dA*dT*dG*kG*kA*kA; antisense) [Compound 716420]
[1]
  YAP1 (% UTC): 50 % UTC

## 1074225 (antisense k[5mC]*k[5mC]*kA*dG*dA*dG*dA*d[5mC]*dT*dA*d[5mC]*dT*d[5mC]*k[5mC]*kA*kG) [compound 1074225]
[12]
  YAP1 (% UTC): 11 % UTC

## 1074186 (antisense kG*kG*kG*d[5mC]*d[5mC]*dG*dG*dT*dT*dG*dA*dG*dG*k[5mC]*kG*kG) [Compound 1074186]
[9]
  YAP1 (% UTC): 74 % UTC
